This is an account of results in patent US5837728A, “9-cis retinoic acid esters and amides and uses thereof” (priority 1995, dated 1998).

The test system of one data set is sebaceous gland. Nature of the data set: Oral hamster sebaceous gland reduction assay. In kind it is in vivo, male Syrian golden hamsters. More on the design: key to the marks not given beside the values. The conditions noted are these: 32 mg/kg. How it is done: An oral assay for hamster sebaceous gland reduction is conducted.
Hamsters are dosed orally with the test compound and vehicle alone. The reduction in sebaceous gland size is estimated microscopically in relation to the control. The assay is unique and proprietary to Ortho Pharmaceutical Corp. and is based upon the work of Plewig et al. (1977) and Gomex et al. (1980). Plewig, et al., Hamster Ear Model for Sebaceous Glands, J. Invest. Derm. 68: 171-176 (1977). Gomez, et al., Effect of 13-cis-Retinoic Acid on the Hamster Flank Organ, J. Invest. Derm. 74: 392-397 (1980).
For oral (p.o.) studies, male Syrian golden hamsters are […] at 5 ml/kg, once daily, five consecutive days/week for two or three weeks. Modified but similar dosing schedules could be used. Control hamsters are dosed with vehicle alone at 5 ml/kg. Following final treatment (up to 72 hours), the hamsters are sacrificed in a CO2 atmosphere. Samples of each test site are placed into 10% buffered formalin and histologically prepared. Serial sections of each sample are stained (H&E) and examined microscopically.
The reduction in sebaceous gland size is estimated microscopically in relation to the control treated sites. To quantify sebaceous gland size, cross-sectional areas are measured with an image analyzer system.

The test system of data set [1] is skin (inner forearm, cheek). Nature of the data set: Topical assay for comparative dermal irritation in human subjects. The data set is classed as in vivo, human (patients). How it is done:
2-(9-cis-retinoyloxy)-4-methoxyacetophenone is evaluated in a study of its potential to produce dermal irritation. Comparisons are made of tretinoin, isotretinoin, 2-(9-cis-retinoyloxy)-4-methoxyacetophenone, and the vehicle solution.
In the first test, four solutions are used. The control consists of vehicle solution, namely a solution of 60% by volume ethanol and 40% by volume polyethylene glycol. The other three solutions are 0.025% solutions of tretinoin, isotretinoin, or 2-(9-cis-retinoyloxy)-4-methoxyacetophenone in 60% by volume ethanol and 40% by volume polyethylene glycol. Four patients paint two saturated cotton swabs of each of the four solutions on four different areas of the inner forearm, twice daily for ten days.
In the second test, four other solutions are used. The control consists of vehicle solution, namely a solution of 90% by volume ethanol and 10% by volume polyethylene glycol. The other three solutions are 0.075% solutions of tretinoin, isotretinoin, or 2-(9-cis-retinoyloxy)-4-methoxyacetophenonein 90% by volume ethanol and 10% by volume polyethylene glycol. Four patients paint two saturated cotton swabs of each of the four solutions on four different areas of the inner forearm, twice daily for ten days. Only one subject experiences an irritant reaction. […] By day nine, both areas are still reacting, the tretinoin area more intensely than the isotretinoin area. There is no reaction in either the 2-(9-cis-retinoyloxy)-4-methoxyacetophenone or the control areas.
In the third test, three solutions are used. The three solutions are 0.075% solutions of tretinoin, isotretinoin, or 2-(9-cis-retinoyloxy)-4-methoxyacetophenone in 90% by volume ethanol and 10% by volume polyethylene glycol. Four patients paint two saturated cotton swabs of the 2-(9-cis-retinoyloxy)-4-methoxyacetophenone solution twice daily on one cheek of their faces. To the other cheek they apply two saturated cotton swabs of either tretinoin or isotretinoin.
The tests are carried out in double-blind fashion, that is, neither the subjects nor the investigator know the contents of the solutions during the study.
Clinical assessments are made daily of the subjects cheeks. All subjects develop irritant reactions by the third or fourth day of the study.

The target in the next data set is retinoid receptors. The conditions noted are these: all six subfamilies of retinoid receptors; cited from earlier work.
The test system of data set [2] is ulceration of both lower legs. The conditions noted are these: one patient, livedoid vasculitis; cited from earlier work.
Data set [3] deals with ornithine decarboxylase (ODC). Description: ODC/Retinoid Bioassay: inhibition of TPA induced ornithine decarboxylase activity. Particulars: topical, 1.7 nM (as printed in Table 2), TPA induced. In kind it is in vivo, CD-1 mice. How it is done: The ODC/Retinoid Bioassay is based on the method of Verma, A. K. and Boutwell, R. K., Cancer Res. (1977) 37:2196-2201. The ODC assay measures a compounds effect on the prevention of the induction of ODC, namely the effect of the retinoid compound on the inhibition of the tumor promoter 12-O-tetradecanoylphorbol-13-acetate (TPA) induced ODC activity. The assay is carried out using CD-1 mice (aged 7 to 9 weeks). The dorsal hair of the mice is shaved 3-4 days before testing. Four mice are used for each point. The test retinoids, at one of two dose levels (1.7 and 17 nmoles) dissolved in 0.2 ml of acetone is applied topically to the back of each shaved mouse. A single dose of TPA ([…]) is applied to the back of each treated mouse 30 minutes later. Control groups are treated with either acetone alone, TPA, or tretinoin. The mice are sacrificed by cervical dislocation 5 hours after TPA treatment.
The dorsal skin encompassing the shaved and TPA exposed area is excised and placed in a 100 ml beaker containing distilled water maintained at 51° C.-57° C. The skin is soaked for 50-70 seconds at this temperature with intermittent stirring. The skin is placed epidermis side up in a chilled (0°-5° C.) stainless steel plate and the epidermal layer is scraped off with a razor blade. The epidermal layers from the 4 mice are pooled and placed in a homogenization tube with 2 ml of ODA buffer ([…] with […] pyridoxal phosphate, […] ethylenediaminetetraacetic acid (EDTA), 1 mM dithiothreitol, pH 7.5). The pooled epidermal layers are homogenized for 15 seconds at 0° C. using a Polytron homogenizer at a setting of 7.5. The homogenate is centrifuged at 30,000×g and the supernatant fraction is pipetted into a storage tube and frozen for about 72 hours.
The homogenate is assayed for ODC activity as described by Verma and Boutwell to measure the release of ^14 CO2 from labeled DL(1-14C) ornithine. Incubations are carried out in disposable centrifuge tubes with center well holders containing filter paper impregnated with sodium hydroxide to absorb ^14 CO2. The incubation mixture consisted of 90 μl of L-ornithine, 350 μl of ODC buffer, 100 μl of 14C-ornithine (1.32 nm, Sp. Act:4.4 pCi/pM) and 10 μl of test sample. After incubation at 37° C. for 45 minutes, 0.5 ml of 2M chilled citric acid (4° C.) is added and incubation is continue for an additional 30 minutes to insure complete absorption of ^14 CO2. The filter paper is removed from the center well holders and set in 1 ml of water in capped scintillation vials for at least 1 hour before adding RBI 3820 scintillation cocktail. Radioactivity is measured in a Tri Carb Scintillation Counter. Results are expressed as pmol of ^14 CO2 released in 30 minutes per milligram of protein based on the specific activity of DL-14C-ornithine. The results are expressed in Table 2 below as the % reduction in ODC activity as compared to the control, for the compounds of each of the preceding Examples: […]

For data set [4], the system named is donor sites (partial-thickness wounds). Particulars: average, silver sulfadiazine cream containing epidermal growth factor; cited from earlier work.

With `CC1=C(/C=C/C(C)=C/C=C/C(C)=C\C(=O)O)C(C)(C)CCC1` [13-cis-retinoic acid], the Sebaceous gland reduction entry in the data set on sebaceous gland is reported as “++”. Moreover, in data set [1] (first test, 0.025% solution, twice daily for ten days), the “Irritant reactions, inner forearm” value is given as “No irritant reactions occur”. Besides, in data set [1] (second test, 0.075% solution, twice daily for ten days, one subject of four reacted), the “Irritant reaction, inner forearm” value is “On day seven, the isotretinoin area begins reacting with redness and peeling”. Moreover, the “Irritation of the cheeks” value in data set [1] (third test, 0.075% solution, twice daily, six days) is “reactions which are so intense with redness and peeling that all subjects discontinue application on or before the sixth day”.
For `CC1=C(/C=C/C(C)=C\C=C\C(C)=C\C(=O)O)C(C)(C)CCC1` [9-cis-retinoic acid], the “Equilibrium constants in competitive binding” value on retinoid receptors is on record as “lowest equilibrium constants of all retinoids for all six subfamilies of retinoid receptors”.
In the case of `O=C(c1ccc(F)cc1)C1CCN(CCn2c(=O)[nH]c3ccccc3c2=O)CC1` [Ketanserin], in data set [2], the “Effect on recalcitrant ulceration” value was “healed the lesions in a patient with recalcitrant ulceration of both lower legs”.
On to `CCCCCCCCCC(=O)OCC(=O)COC(=O)/C=C(C)/C=C/C=C(C)\C=C\C1=C(C)CCCC1(C)C` [Compound 3, 1-(9-cis-retinoyloxy)-3-decanoylyoxy-2-propanone], for which the ODC activity reduction entry in data set [3] is “+++”. Also, the Sebaceous gland reduction result in the data set on sebaceous gland is “+++”.
On to epidermal growth factor, for which, in data set [4], the “Acceleration of donor site healing time” value is listed as 1.5 days.
